In US20250275959A1, “COMPOUNDS AND METHODS OF THEIR USE” (LEXICON PHARMACEUTICALS, INC., priority 2024, published 2025):
Entries after “also recorded” stand apart in the source; their conditions may differ.

Test: Murine diet-induced obesity (DIO) model, Compound A study
Format: in vivo, C57BL/6J mice
Settings: DIO mice
Method: The effects of four representative compounds of the invention were tested in a mouse model of diet-induced obesity (DIO): • Compound A is (R)—N-(tert-butylsulfonyl)-4-(1-(5-(pyridin-3-yloxy)pyridin-2-yl)ethoxy)-3-(trifluoromethyl)benzamide; • Compound B is (R)-4-(1-(5-(cyclopropylmethoxy)pyridin-2-yl)propoxy)-N-((4-(2-(dimethylamino)ethoxy)phenyl)sulfonyl)-2,3-difluorobenzamide; • Compound C is (R)—N-((4-(2-(dimethylamino)ethoxy)piperidin-1l-yl)sulfonyl)-2,3-difluoro-4-(1-(5-(pyridin-2-yloxy)pyridin-2-yl)propoxy)benzamide; and • Compound D is (R)-2,3-difluoro-N-((4-methylpiperazin-1-yl)sulfonyl)-4-(1-(5-(pyridin-2-yloxy)pyridin-2-yl)propoxy)benzamide.
The mice used in these experiments were C57BL/6J mice fed a high-fat diet (D12492 from Research Diets) ad libitum during the study period. The vehicle and test article formulations were 10% w/v Solutol in water.
After a seven-day acclimation period, the DIO model was induced by putting the mice on a high fat diet for ten weeks. After the ten weeks, the DIO mice were equally divided into groups based on body weight, ten mice in each group: the control group (Vehicle) and Compound A at 30 mg/kg.
The animals were pre-dosed for two days prior to formal dosing (once-per-day treatment for every group). From Day 1 to Day 13, the animals in the dosing group were administered orally by gavage at 5:00 p.m. every day as well as weight and food intake were recorded daily. All animals were fasted overnight after dosing on Day 1, Day 4, Day 12 and Day 13, then the blood (retro-orbital bleed) of mice from each group was collected at 7:00 a.m. to separate out the serum on Day 2, Day 5 and Day 13 for measuring total cholesterol levels (TC), triglyceride (TG), aminotransferase alanine (ALT), aspartate aminotransferase (AST) and total bilirubin (TBil) levels. All animals were performed OGTT test (0 min, 30 min, 60 min and 120 min) and measured insulin levels (0 min and 30 min) on Day 14.
• 1. Body weight and Food Consumption: Pre-dose every day starting from Day −1 onwards. • 2. Day −1 and Day 0: Handle mice and gavage with vehicle. • 3. Day 1: Dose˜5:00 PM. Fast overnight. • 4. Day 2: Determine total cholesterol levels and triglyceride, ALT, AST, Total Bilirubin levels 7:00 AM. Resume feeding. • 5. Day 2-3: Dose˜5:00 PM. • 6. Day 4: Dose˜5:00 PM. Fast overnight. • 7. Day 5: Determine total cholesterol levels and triglyceride, ALT, AST, Total Bilirubin levels˜7:00 AM. Resume feeding. • 8. Day 5˜11: Dose˜5:00 PM. • 9. Day 12: Dose˜5:00 PM. Fast overnight. • 10. Day 13: Determine total cholesterol levels and triglyceride, ALT, AST, Total Bilirubin levels 7:00 AM. Resume feeding. • 11. Day 13: Dose˜5:00 PM. Fast overnight. • 12. Day 14: (No drug administration) Oral glucose tolerance test with glucose levels measured at Pre-dose, 30 min, 60 min and 120 min. And insulin levels at Time 0 min, 30 min after the glucose challenge.
Data was provided as mean±SD. Statistical significance was considered when the P value is less than 0.05. Results were analyzed by SPSS software. […]. T-test was used to calculate P value. […]

C[C@@H](Oc1ccc(C(=O)NS(=O)(=O)C(C)(C)C)cc1C(F)(F)F)c1ccc(Oc2cccnc2)cn1 [Compound A, (R)—N-(tert-butylsulfonyl)-4-(1-(5-(pyridin-3-yloxy)pyridin-2-yl)ethoxy)-3-(trifluoromethyl)benzamide]
Body Weight (g)/Day (30 mg/kg oral daily, Day 1): 37.9 ± 1.4 g
Body Weight (g)/Day (30 mg/kg oral daily, Day 2): 36.6 ± 1.4 g
Body Weight (g)/Day (30 mg/kg oral daily, Day 3): 35.8 ± 1.5 g
Body Weight (g)/Day (30 mg/kg oral daily, Day 4): 35.3 ± 1.4 g
Body Weight (g)/Day (30 mg/kg oral daily, Day 5): 34.3 ± 1.3 g
Body Weight (g)/Day (30 mg/kg oral daily, Day 6): 34.2 ± 1.2 g
Body Weight (g)/Day (30 mg/kg oral daily, Day 7): 34.0 ± 1.3 g
Body Weight (g)/Day (30 mg/kg oral daily, Day 8): 33.9 ± 1.4 g
Body Weight (g)/Day (30 mg/kg oral daily, Day 9): 33.5 ± 1.4 g
Body Weight (g)/Day (30 mg/kg oral daily, Day 10): 33.4 ± 1.3 g
Body Weight (g)/Day (30 mg/kg oral daily, Day 11): 32.9 ± 1.4 g
Body Weight (g)/Day (30 mg/kg oral daily, Day 12): 32.8 ± 1.3 g
mean body weight versus control group (30 mg/kg oral daily, Day −1 to Day 12): significantly lower than that of the control group from Day 8 onwards; also recorded: statistically significant effect on the mice's body weights versus control
Body Weight (g)/Day (30 mg/kg, Day 0 (pre-dose)): 38.3 ± 1.4 g
Body Weight (g)/Day (30 mg/kg, Day −1 (pre-dose)): 38.5 ± 1.6 g
